# From paper PMC9841533, “Microtubule-Stabilizing 1,2,4-Triazolo[1,5-a]pyrimidines as Candidate Therapeutics for Neurodegenerative Disease: Matched Molecular Pair Analyses and Computational Studies Reveal New Structure–Activity Insights” (Journal of Medicinal Chemistry, 2022)
# Read-outs that look alike come from different tables or passages of the source.
# Columns and labels:
# [1] = Resazurin cell viability assay, HeLa; assay type: cell-based; conditions: human, HeLa cells, three biological replicates, read-out: HeLa CC50 ± SD
# Method: (§1) Cell Culture. QBI293 and HeLa cells were cultured in DMEM supplemented with 10% heat-
# (§2) inactivated FBS and 1% penicillin-streptomycin. Cells were grown in T175 cell culture flasks maintained
# (§3) at 37 ℃ in 5% CO2 and sub-c ultured when at 60-8 0% cell confluence.
# (§4) Resazurin Cell Viability Assay. Cytotoxicity in QBI293 and HeLa cells was measured using the
# (§5) resazurin cell viability assay.1 Test compounds were serially diluted in DMSO and added to 96-well
# (§6) polystyrene assay plates to give final assay concentrations ranging from 100 nM to 4000 nM (1 µL; 1%
# (§7) total DMSO). Fresh medium was added to the assay plate (49 µL/well). QBI293 or HeLa cells were
# (§8) cells/well. Assay plates were incubated at 37 °C and 5% CO2 for 48 h, followed by addition of 20 µL 0.5
# (§9) mM resazurin (Alfa Aesar, Cat. B21187) in PBS to each well. Assay plates were incubated in the dark for
# (§10) (1 picture or pasted object on this page, not shown here)
# (§11) 4 h at 37 °C. Fluorescence was measured at 531 nm and 595 nm excitation and emission wavelengths,
# (§12) respectively, using a 2104 EnVision® multilabel plate reader. The viability of each well was normalized to
# (§13) positive and negative controls in each assay plate. Dose-response curves were generated and CC50 values
# (§14) calculated with GraphPad Prism, version 9.3 (San Diego, CA) using a sigmoidal four parameter logistic
# (§15) curve. The means ± standard deviations from three biological replicates are shown.
# (§16) (1) O'Brien, J.; Wilson, I.; Orton, T.; Pognan, F. Investigation of the Alamar Blue (resazurin) fluorescent
# (§17) dye for the assessment of mammalian cell cytotoxicity. Eur. J. Biochem. 2000, 267 (17), 5421-5426.
# [2] = Resazurin cell viability assay, QBI293; assay type: cell-based; conditions: human, QBI293 cells, three biological replicates, read-out: QBI293 CC50 ± SD
# Method: as §1, §2, §3, §4, §5, §6, §7, §8, §9, §10, §11, §12, §13, §14, §15, §16, §17
# [3] = tested on: total α-tubulin (α-Tub) levels in QBI293 cells; assay: QBI293 cell assay: total α-tubulin ELISA; assay type: cell-based
# Procedure, shortened: (§18)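 AcTub and α-Tub were quantified by ELISA in whole-cell extracts normalized by BCA protein and expressed relative to vehicle. AcTub changes were also scaled to a 100 nM reference stabilizer control.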
# [4] = tested on: acetylated α-tubulin (AcTub) levels in QBI293 cells; assay: QBI293 cell assay of MT stabilization: acetylated α-tubulin ELISA; assay type: cell-based
# Procedure, shortened: as §18
# [5] = tested on: AcTub levels in OA-treated primary mouse cortical neurons; assay: Okadaic acid (OA) assay, AcTub ELISA in primary mouse cortical neurons; assay type: cell-based; conditions: OA 15 nM, 8 h, compound 1 and 10 μM
# Method: To further evaluate the activity of Class I alkyne derivatives and hybrid compounds, several compounds were also assessed for their ability to compensate for MT deficits in primary neuron cultures that were treated with the phosphatase inhibitor, okadaic acid (OA). As previously described,[11] treatment of rodent neurons with OA results in tau hyperphosphorylation and MT collapse that presumably results, at least in part, from tau disengagement from MTs. Co-treatment of neurons with Class I TPDs, such as 1, along with OA prevents this MT collapse, with a resulting normalization of MT structure and neuronal processes which can be observed upon visual inspection of the neurons or through an assessment of neuronal AcTub levels, while Class II TPDs are generally unable to provide meaningful compensation of MT deficits, especially when tested at higher (i.e., 10 μM) compound concentration.[11],[12]
# Figure 4 ELISA determination of AcTub levels in homogenates from primary rat cortical neurons treated with either vehicle, or OA (15 nM) in the presence of vehicle or TPD 1, 8, 9 (A); and primary mouse cortical neurons treated with vehicle, or OA (15 nM) in the presence of vehicle or TPD 1, 24, 45, 46, 53, 54 (B). Error bars represent SEM, with ***, p < 0.001 relative to vehicle treatment in the absence of OA as determined by one-way ANOVA.
# Compound-induced changes in acetylated-tubulin and α-tubulin in QBI293 cells or primary mouse or rat neurons were as previously described.[11],[12] For compound testing, QBI293 cells were plated at a density of 2 × 10^5 cells/well in 12-well plates. The plated cells were incubated overnight, after which the medium was aspirated and fresh medium containing vehicle (0.25–0.3% DMSO) or test compound was added. Test compounds were prepared as 4–20 mM stock solutions in 100% DMSO, and these were diluted in culture medium prior to addition to the QBI293 cells. After 4 h incubation, whole-cell extracts were prepared from the QBI293 cells as described[11] and the supernatant fraction from each sample was assessed for protein content by bicinchoninic acid (BCA) assay. The amount of acetyl-tubulin (AcTub) and α-tubulin (αTub) within the cell extract samples was quantified using specific enzyme-linked immunosorbent assays (ELISA), as previously described.[11] Acetyl-tubulin levels were determined in a similar manner in rat or mouse cortical neuron cultures in which embryonic dissociated cortical neurons were plated at 3 × 10^5 cells/well in poly-D-lysine-coated 12-well plates, essentially as previously described.[11] The neurons were allowed to grow for 10 days before they were treated for 8 h with 15 nM okadaic acid in the presence or absence of test compound prepared as described above, or vehicle (0.25% DMSO). Culture homogenates were prepared for the determination of AcTub levels by ELISA as previously described.[11]
# VehicleVehicleVehicleVehicle25 (1 µM)
# Figure S2. Assessment of AcTub levels in primary mouse cortical neurons treated with vehicle,
# as §10
# [6] = tested on: acetylated α-tubulin (AcTub) levels in QBI293 cells; parameters: method as in PMID 26980057, PMID 33411523; conditions: 4 h incubation, 10 μM, reported in previous studies; cited from earlier work
# [7] = tested on: total α-tubulin (α-Tub) levels in QBI293 cells; parameters: method as in PMID 26980057, PMID 33411523; conditions: 4 h incubation, 10 μM, reported in previous studies; cited from earlier work
# [8] = 4 h, 1 uM compound, read-out: AlfaTub (1uM)
# [9] = 4 h, 10 uM compound, read-out: AlfaTub (10 uM)
# [10] = 4 h incubation, 1 μM, read-out: α-Tub 1 μM, fold-change compared to vehicle (DMSO)-treated cells
# [11] = 4 h incubation, 10 μM, read-out: α-Tub 10 μM, fold-change compared to vehicle (DMSO)-treated cells
# [12] = 4 h, 1 uM compound, read-out: AcTub (1uM)
# [13] = 4 h, 10 uM compound, read-out: AcTub (10 uM)
# [14] = 4 h incubation, 1 μM, read-out: AcTub 1 μM, fold-change compared to vehicle (DMSO)-treated cells
# [15] = 4 h incubation, 10 μM, read-out: AcTub 10 μM, fold-change compared to vehicle (DMSO)-treated cells
Structure (SMILES),CC50 at 48 h [1] [nM],CC50 at 48 h [2] [nM],"fold induction at 1 µM [3, 8]","fold induction at 10 µM [3, 9]","fold induction at 1 µM [3, 10]","fold induction at 10 µM [3, 11]",AcTub (1 uM - normalized) ([4]; 1 uM compound),AcTub (10 uM - normalized) ([4]; 10 uM compound),"fold induction at 1 µM [4, 12]","fold induction at 10 µM [4, 13]","AcTub 1 μM, fold-change compared to positive control compound 5 (100 nM) (in parentheses) ([4]; 4 h incubation, 1 μM) [fold-change]","fold induction at 1 µM [4, 14]","AcTub 10 μM, fold-change compared to positive control compound 5 (100 nM) (in parentheses) ([4]; 4 h incubation, 10 μM) [fold-change]","fold induction at 10 µM [4, 15]",prevention/correction of OA-induced MT collapse (AcTub levels) [5],"AcTub 10 μM, fold-change compared to vehicle (DMSO)-treated cells [6] [fold-change]","α-Tub 10 μM, fold-change compared to vehicle (DMSO)-treated cells [7] [fold-change]"
"CC[C@]1(O)C[C@@H]2CN(CCc3c([nH]c4ccccc34)[C@@](C(=O)OC)(c3cc4c(cc3OC)N(C)[C@H]3[C@@](O)(C(=O)OC)[C@H](OC(C)=O)[C@]5(CC)C=CCN6CC[C@]43[C@@H]65)C2)C1 [Vinblastine, reference compound]",2.11 ± 0.1,3.23 ± 0.67,,,,,,,,,,,,,,,
"C[C@@H](Nc1c(-c2c(F)cc(OCCCO)cc2F)c(Cl)nc2ncnn12)C(C)(C)C [Compound 25, (R)-3-(4-(5-Chloro-7-((3,3-dimethylbutan-2-yl)amino)-[1,2,4]triazolo[1,5-a]pyrimidin-6-yl)-3,5-difluorophenoxy)propan-1-ol]",,,0.96,1.06,0.96 ± 0.03,1.06 ± 0.03,1.01,0.98,9.17,8.92,1.01,9.17 ± 0.13,0.98,8.92 ± 0.36,lesser recovery of OA-induced MT collapse,,
"CC(C)[C@@H](C)Nc1c(-c2c(F)cc(C#CCCO)cc2F)c(Cl)nc2ncnn12 [Compound 45, (R)-4-(4-(5-Chloro-7-((3-methylbutan-2-yl)amino)-[1,2,4]triazolo[1,5-a]pyrimidin-6-yl)-3,5-difluorophenyl)but-3-yn-1-ol]",,,1,0.95,1 ± 0.03,0.95 ± 0.03,0.48,0.82,5.9,10.1,0.48,5.9 ± 0.32,0.82,10.1 ± 0.71,can prevent the OA-induced MT collapse,,
"CC(=O)O[C@H]1C(=O)[C@@]2(C)[C@H]([C@H](OC(=O)c3ccccc3)[C@]3(O)C[C@H](OC(=O)[C@H](O)[C@@H](NC(=O)c4ccccc4)c4ccccc4)C(C)=C1C3(C)C)[C@]1(OC(C)=O)CO[C@@H]1C[C@@H]2O [Taxol, reference compound]",1.53 ± 0.26,1.29 ± 0.16,,,,,,,,,,,,,,,
"CC(C)[C@@H](C)Nc1c(-c2c(F)cc(C#CCCCO)cc2F)c(Cl)nc2ncnn12 [Compound 46, (R)-5-(4-(5-Chloro-7-((3-methylbutan-2-yl)amino)-[1,2,4]triazolo[1,5-a]pyrimidin-6-yl)-3,5-difluorophenyl)pent-4-yn-1-ol]",,,1,1.37,1 ± 0.08,1.37 ± 0.05,0.40,0.68,2.59,4.43,0.40,2.59 ± 0.16,0.68,4.43 ± 0.56,can prevent the OA-induced MT collapse,,
C[C@H](Nc1c(-c2c(F)cc(OCCCO)cc2F)c(Cl)nc2ncnn12)C(F)(F)F [Compound 64],189 ± 19,226 ± 17,0.73,0.37,,,1.24,0.19,6.76,1.03,,,,,,1.03 ± 0.02,0.37 ± 0.02
"C[C@@H](Nc1c(-c2c(F)cc(C#CCCCO)cc2F)c(Cl)nc2ncnn12)C(C)(C)C [Compound 54, (R)-5-(4-(5-Chloro-7-((3,3-dimethylbutan-2-yl)amino)-[1,2,4]triazolo[1,5-a]pyrimidin-6-yl)-3,5-difluorophenyl)pent-4-yn-1-ol]",,,1.19,1.14,1.19 ± 0.11,1.14 ± 0.077,0.74,0.87,4.78,5.59,0.74,4.78 ± 1,0.87,5.59 ± 0.26,can prevent the OA-induced MT collapse,,
